# Reference: patent US20090156646A1, “PYRIDYLPHENOL COMPOUND AND USE THEREOF” (TAKEDA PHARMACEUTICAL COMPANY LIMITED, priority 2005, published 2009)
# Structures can show the parent of a compound that is named as a salt.
# What was measured:
# [1] = target: T1, human metastin receptor hOT7T175 (Homo sapiens, UniProt Q969F8, L364H); experiment: binding inhibiting activity: 125I-metastin (40-54) binding to cell membrane fraction of h175 KB34 cells; settings: room temperature 60 minutes, read-out: binding inhibiting activity, represented by the IC50 value
# T1 construct: encoding the entire length of human metastin receptor hOT7T175; expressed in transfected cells; host or cells: CHO/dhFr- cells (ATCC #CRL-9096) stably transfected with pAKKO-hOT7T175; clone h175-16 was used as whole cells for FLIPR
# Protocol: cDNA fragments (SEQ ID NO: 2) encoding the entire length of human metastin receptor hOT7T175 were incorporated into expression vector pAKKO1.11H to produce animal cell expression plasmids pAKKO-hOT7T175. CHO/dhFr-cells (ATCC, #CRL-9096) were seeded onto 6 cm culture dishes (Becton Dickinson) at a density of 0.3×10^6 cells/dish, and cultured in the conditions of 48 hours, 37° C. and 5% CO2. 5 μg pAKKO-hOT7T175 plasmid DNA was transfected to the resultant cells by a known method (described in Example 3 of WO 00/24890) using the Cellphect Transfection Kit (Amersham, #27-9268-01). The DNA-transfected cells were cultured in the Dulbecco's modified Eagle medium (DMEM) (Sigma, #D6046) containing 10% dialyzed FBS (Biowest, #S180D), 1× Non-Essential Amino Acid (Invitrogen, #11140-050) and 50 μg/ml Gentamycin (Invitrogen, #15750-060; and cell strains stably expressing the plasmid genes were selected. The obtained 41 clones were treated with the FLIPR assay (in accordance with the method described in Example 3 of WO 00/24890), and the reactivity to the human metastin […] (Nos. 40 to 54 of the human metastin sequence; Peptide Institute, Inc., #4389-v) was evaluated. In the end, h175 KB34 cell strains were selected. By substantially the same method, h175-16 cell strains were also produced.
# The h175 KB34 cells were cultured to be on the stage of 40-50% confluency using a cell factory (Nunc, #164327), and then cells were recovered in the following method.
# First, the medium was disposed, and the cells were washed twice with 200 ml EDTA/PBS(−). Another 200 ml of EDTA/PBS(−) was added, and the cells were kept still for 20 minutes at room temperature until being peeled off. The cells were recovered into four 50 ml tubes (Becton Dickinson, #352070), and centrifuged (2,000 rpm, 10 min., 4° C.) by a reduced performance centrifuge (TOMY, RL-101). The supernatant was disposed, and the pellets in the four tubes were each suspended with 10 ml EDTA/PBS(−) and collected into one tube (Becton Dickinson, #352070). The pellet was further centrifuged (2,000 rpm, 10 min., 4° C.). The resultant pellet was suspended with 20 ml ice-cooled homogenizer buffer [10 mM NaHCO3, 2 mM EGTA, 0.2 mM magnesium acetate, 10 μg/ml Leupeptin (Peptide Institute, Inc., #4041), 10 μg/ml E-64 (Peptide Institute, Inc., # 4096), 100 μg/ml o-phenanthroline (Dojindo Laboratories), 90 μg/ml PMSF (Wako Pure Chemical Industries, Ltd.), 10 μg/ml Pepstatin A (Peptide Institute, Inc., #4397), pH7.3]. The cell suspension was homogenized 3 times, each for 30 seconds, using a Polytron homogenizer. The resultant homogenate was centrifuged (2,500 rpm, 10 min, 4° C.) using a high performance refrigerated centrifuge (Hitachi, Ltd., CR26H). The supernatant was recovered into a super-centrifuge tube, and super-centrifuged (30,000 rpm, 60 min, 4° C.) using a super-centrifuge (Hitachi, Ltd., SCP70H). 3 ml homogenizer buffer was added to the resultant pellet, and the pellet was suspended by pipetting. 3 ml glycerol (Wako Pure Chemical Industries, Ltd.) was added to the resultant suspension and diluted 2-folds. The resultant substance was used as a cell membrane fraction of the h175 KB34 cells. Each […] of the membrane fraction was put into a 1.5 ml tube (Eppendorf, #0030120.086), stored in a freezer (−30 C) so as not to be frozen, and used for a binding assay.
# An assay buffer was prepared on the day of the test by adding, to each 100 ml of an assay basic buffer [20 mM Tris, 2.5 mM Magnesium Acetate, 2 mM EGTA, pH 7.4], 1 mg Leupeptin (Peptide Institute, Inc., 4041), 1 mg E-64 (Peptide Institute, Inc., 4096), 10 mg o-phenanthroline (Dojindo Laboratories), 9 mg PMSF (Wako Pure Chemical Industries, Ltd.) and 1 mg Pepstatin A (Peptide Institute, Inc., 4397). The prepared assay buffer was stored at 4° C. until being used. When the measurement was to be performed with no BSA, the above-described assay buffer was used. […]
# T1 sequence (Q969F8 whole entry L364H): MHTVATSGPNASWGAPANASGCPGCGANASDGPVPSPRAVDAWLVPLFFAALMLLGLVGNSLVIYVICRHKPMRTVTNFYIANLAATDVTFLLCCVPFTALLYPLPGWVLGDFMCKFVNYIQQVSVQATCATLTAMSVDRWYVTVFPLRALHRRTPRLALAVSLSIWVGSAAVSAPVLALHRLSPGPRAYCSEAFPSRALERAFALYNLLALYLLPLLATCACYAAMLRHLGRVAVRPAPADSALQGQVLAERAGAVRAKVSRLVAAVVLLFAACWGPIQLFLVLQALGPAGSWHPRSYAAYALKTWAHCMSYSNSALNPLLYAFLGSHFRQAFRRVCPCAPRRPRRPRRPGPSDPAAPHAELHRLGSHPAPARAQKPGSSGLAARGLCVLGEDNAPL
Compound,IC50 [1] [µM],melting point [°C]
"N#Cc1c(-c2cccc(CN)c2)cc(-c2ccccc2O)nc1NC(=O)c1cccs1 [Example 1, N-[4-[3-(aminomethyl)phenyl]-3-cyano-6-(2-hydroxyphenyl)pyridin-2-yl]thiophene-2-carboxamide]",≤ 10,203 to 205
"CN(C)Cc1cccc(-c2cc(-c3ccccc3O)nc(NC(=O)c3cccs3)c2C#N)c1 [Example 2, N-[3-cyano-4-{3-[(dimethylamino)methyl]phenyl}-6-(2-hydroxyphenyl)pyridin-2-yl]thiophene-2-carboxamide]",≤ 10,225 to 226
"Cl.N#Cc1c(-c2cccc(C(=O)N3CCC(N)CC3)c2)cc(-c2ccccc2O)nc1NC(=O)c1cccs1 [Example 5, N-[4-{3-[(4-aminopiperidine-1-yl)carbonyl]phenyl}-3-cyano-6-(2-hydroxyphenyl)pyridin-2-yl]thiophene-2-carboxamide hydrochloride]",≤ 10,215 to 218
"Cl.N#Cc1c(-c2cccc(C(=O)NC3CCNCC3)c2)cc(-c2ccccc2O)nc1NC(=O)c1cccs1 [Example 7, N-(3-cyano-6-(2-hydroxyphenyl)-4-{3-[(piperidin-4-ylamino)carbonyl]phenyl}pyridin-2-yl)thiophene-2-carboxamide hydrochloride]",≤ 10,254 to 256
"Cl.N#Cc1c(-c2cccc(CNC(=O)CN)c2)cc(-c2ccccc2O)nc1NC(=O)c1cccs1 [Example 43, N-[3-cyano-4-{3-[(glycylamino)methyl]phenyl}-6-(2-hydroxyphenyl)pyridin-2-yl]thiophene-2-carboxamide hydrochloride]",≤ 10,181 to 186
"Cl.N#Cc1c(-c2cccc(CNC(=O)CCN)c2)cc(-c2ccccc2O)nc1NC(=O)c1cccs1 [Example 44, N-[4-{3-[(β-alanylamino)methyl]phenyl}-3-cyano-6-(2-hydroxyphenyl)pyridin-2-yl]thiophene-2-carboxamide hydrochloride]",≤ 10,173 to 180
"CCCC(CC(=O)Nc1cccc(-c2cc(-c3ccc(F)cc3O)nc(NC(=O)c3ccco3)c2C#N)c1)N(CC)CC (centres unmarked) [Example 317, N-[3-cyano-4-(3-{[3-(diethylamino)hexanoyl]amino}phenyl)-6-(4-fluoro-2-hydroxyphenyl)pyridin-2-yl]-2-furamide hydrochloride]",≤ 10,–
"CN(C)CCN(C)c1cccc(-c2cc(-c3ccc(F)cc3O)nc(NC(=O)c3ccco3)c2C#N)c1 [Example 324, N-[3-cyano-4-{3-[[2-(dimethylamino)ethyl] (methyl)amino]phenyl}-6-(4-fluoro-2-hydroxyphenyl)pyridin-2-yl]-2-furamide]",≤ 10,–
"CCN1CCN(c2cccc(-c3cc(-c4ccc(F)cc4O)nc(NC(=O)c4ccco4)c3C#N)c2)CC1 [Example 330, N-[3-cyano-4-[3-(4-ethylpiperazin-1-yl)phenyl]-6-(4-fluoro-2-hydroxyphenyl)pyridin-2-yl]-2-furamide hydrochloride]",≤ 10,–
"CN1CCN(Cc2cccc(-c3cc(-c4ccc(F)cc4O)nc(NC(=O)c4ccco4)c3C#N)c2)CC1 [Example 333, N-(3-cyano-6-(4-fluoro-2-hydroxyphenyl)-4-{3-[(4-methylpiperazin-1-yl)methyl]phenyl}pyridin-2-yl)-2-furamide dihydrochloride]",≤ 10,–
"CCN1CCN(Cc2cccc(-c3cc(-c4ccc(F)cc4O)nc(NC(=O)c4ccco4)c3C#N)c2)CC1 [Example 334, N-[3-cyano-4-{3-[(4-ethylpiperazin-1-yl)methyl]phenyl}-6-(4-fluoro-2-hydroxyphenyl)pyridin-2-yl]-2-furamide dihydrochloride]",≤ 10,–
"N#Cc1c(-c2cccc(CN3CCCNCC3)c2)cc(-c2ccc(F)cc2O)nc1NC(=O)c1ccco1 [Example 335, N-[3-cyano-4-[3-(1,4-diazepan-1-ylmethyl)phenyl]-6-(4-fluoro-2-hydroxyphenyl)pyridin-2-yl]-2-furamide dihydrochloride]",≤ 10,–

# Now from value to compound:
IC50 [1] [µM],melting point [°C],Compound
≤ 10,224 to 225,"Cl.N#Cc1c(-c2cccc(NC(=O)[C@@H]3CCCC[C@@H]3N)c2)cc(-c2ccc(F)cc2O)nc1NC(=O)c1ccco1 (racemic) [Example 267, N-{4-[3-({[(1SR,2RS)-2-aminocyclohexyl]carbonyl}amino)phenyl]-3-cyano-6-(4-fluoro-2-hydroxyphenyl)pyridin-2-yl}-2-furamide hydrochloride]"
≤ 10,224 to 226,"Cl.N#Cc1c(-c2cccc(NC(=O)[C@H]3CCC[C@H]3N)c2)cc(-c2ccc(F)cc2O)nc1NC(=O)c1ccco1 (racemic) [Example 278, N-{4-[3-({[(1SR,2RS)-2-aminocyclopentyl]carbonyl}amino)phenyl]-3-cyano-6-(4-fluoro-2-hydroxyphenyl)pyridin-2-yl}-2-furamide hydrochloride]"
≤ 10,250 to 252,"Cl.N#Cc1c(-c2cccc(C(=O)N[C@H]3CCCC[C@H]3N)c2)cc(-c2ccc(F)cc2O)nc1NC(=O)c1ccco1 (racemic) [Example 280, N-{4-[3-({[(1SR,2RS)-2-aminocyclohexyl]amino}carbonyl)phenyl]-3-cyano-6-(4-fluoro-2-hydroxyphenyl)pyridin-2-yl}-2-furamide hydrochloride]"
≤ 10,285 to 288,"Cl.N#Cc1c(-c2cccc(C(=O)N[C@@H]3CCCC[C@H]3N)c2)cc(-c2ccc(F)cc2O)nc1NC(=O)c1ccco1 (racemic) [Example 289, N-{4-[3-({[(1SR,2SR)-2-aminocyclohexyl]amino}carbonyl)phenyl]-3-cyano-6-(4-fluoro-2-hydroxyphenyl)pyridin-2-yl}-2-furamide hydrochloride]"
≤ 10,–,"CNCCC(=O)Nc1cccc(-c2cc(-c3ccc(F)cc3O)nc(NC(=O)c3ccco3)c2C#N)c1 [Example 313, N-(3-cyano-6-(4-fluoro-2-hydroxyphenyl)-4-{3-[(N-methyl-β-alanyl)amino]phenyl}pyridin-2-yl)-2-furamide hydrochloride]"
≤ 10,–,"N#Cc1c(-c2cccc(NC(=O)C[C@H]3CCCN3)c2)cc(-c2ccc(F)cc2O)nc1NC(=O)c1ccco1 [Example 314, N-[3-cyano-6-(4-fluoro-2-hydroxyphenyl)-4-(3-{[(2R)-pyrrolidin-2-ylacetyl]amino}phenyl)pyridin-2-yl]-2-furamide hydrochloride]"
≤ 10,–,"N#Cc1c(-c2cccc(CN3CCNCC3)c2)cc(-c2ccc(F)cc2O)nc1NC(=O)c1ccco1 [Example 325, N-{3-cyano-6-(4-fluoro-2-hydroxyphenyl)-4-[3-(piperazine-1-ylmethyl)phenyl]pyridin-2-yl}-2-furamide ditrifluoroacetic acid]"
